Earlier results in patent publication US11638429B2, “Hypochlorous acid disinfectant and its production method” (SUPER AQUA INTERNATIONAL CO., LTD., priority 2020, dated 2023).

Test system: coliform
Details: versus hypochlorite ion (CLO—); FIG. 2, U.S. EPA

Question: For `OCl` [hypochlorous acid (HCLO), hypochlorous acid], which “sterilization of hypochlorous acid (HCLO) relative to hypochlorite ion (CLO—)” value is on record?
Answer: The value was 80 times.
